Assay results from patent US12497431B2, “Modified peptide fragments of Cav-1 protein and the use thereof in the treatment of fibrosis” (Rein Therapeutics, Inc., priority 2018, dated 2025).
Non-standard residues stand in square brackets, D forms with d. Residues, ends and D or L forms follow the SMILES beside them. No end group written: not given here. Orn = NCCC[C@H](N)C(=O)O

Tests used:
[1] = Cav-1 peptide solubility in Tris Buffered Saline, pH 7.51 (absorbance at 600 nm); type: physicochemical; conditions: for UV (Abs) at dissolution / UV (Abs) after rest: absorbance at 600 nm, 50 mg in 5 mL TBS pH 7.51; for UV (Abs) at dissolution: immediately after dissolution for insoluble peptides, after 10 minutes for soluble peptides; for UV (Abs) after rest: again after 10 minutes (APi2348 15 min, APi2352 5 min, APi2353 15 min, APi2345 only after 20 min)
Protocol: In order to determine which peptides may be most soluble in a liquid formulation, 50 mg of each Cav-1 peptide was dissolved in 5 mL of Tris Buffered Saline, pH 7.51. Each sample was vortexed to help the sample dissolve completely. The absorbance at 600 nm was measured immediately after dissolution of the peptides for insoluble peptides, or after 10 minutes for soluble peptides. Absorbance was measured again after 10 minutes for insoluble peptides except for samples APi2348, APi2352, APi2353 which were measured a second time at 15 minutes, 5 minutes, or 15 minutes after dissolution, respectively.

[2] = tested on: Idiopathic Pulmonary Fibrosis (IPF) cell line 2051; test: Western blot of SMA and tubulin in IPF cells treated with Cav-1 peptides; type: cell-based; conditions: 2 days treatment, 10 uM peptide (LTI-03 10 and 90 uM), ImageJ ratio (FIG. 2)
Protocol: Cav-1 peptides were dissolved in DMSO to make 10 mM stock solutions. 10 mM stock solutions of each peptide were then diluted in HBSS to make 900 μM working stock solutions. The DMSO resuspended polypeptides as well as the working stocks were stored at −20 deg C. For culture media, working stocks were added to DMEM culture media to a final concentration of 10 μM of the Cav-1 peptide.
Idiopathic Pulmonary Fibrosis (IPF) cell line 2051 was purchased and IPF cells from the fourth passage were seeded in 100 mm plates containing DMEM, 10% FBS, and 1% P/S. IPF cells were washed with 4 mL DMEM+1% P/S and serum starved overnight. Cells were then treated for 2 days with either 44 uL HBSS (negative control), 10 uM LTI-03 (SEQ ID NO: 2), 90 uM LTI-03 (positive control), 10 uM APi2350, 10 uM APi2354, 10 uM APi2355, 10 uM APi2356 or with 20 uL of DMSO (negative control).
After 2 days of treatment, cells were washed once in cold, sterile HBSS. HBSS was removed, and 150 uL of lysis buffer with protease inhibitor cocktail was added to the cells. Cells were incubated with lysis buffer for 10 minutes. Cell lysates were scraped from the plates and collected. Cell lysates were then sonicated twice. Following sonication, the lysates were centrifuged at 13,000 RPM for 20 minutes. Lysates were then flash frozen in liquid nitrogen, thawed, vortexed, and centrifuged again at 13,000 RPM for 30 minutes. The supernatant was then collected and the pellet was discarded. The concentration of cell lysates was then determined by BCA assay.
Western blots were performed to evaluate the presence the effects of treatments. Briefly, 12 ug of each lysate was run on a 10% polyacrylamide gel. The gel was then transferred to a membrane and washed. Primary antibodies against smooth muscle actin (SMA) and Tubulin Results of the western blot can be seen in FIG. 1. The treatment for each of the lysates in the pictured lanes are: 1: Untreated, 2: 10 μM LTI-03, 3: 90 μM LTI-03, 4: 10 μM APi2350, 5: 10 μM APi2354, 6: 10 μM APi 2355, 7: 10 μM APi2356, and 8: DMSO.
Western blots were photographed and analyzed with ImageJ to determine a ratio of smooth muscle actin to tubulin (FIG. 2).

[3] = tested on: AEC2 cells of end-stage IPF precision cut lung slices; test: Lysotracker staining of AEC2 cells in end-stage IPF precision cut lung slices; type: cell-based; conditions: end-stage IPF PCLS, daily treatment, staining on days 1, 2, 3, 5, and 7; 10, 100, or 500 μM
Text: (§1) To assess the effect of Cav-1 peptide APi2355 (SEQ ID NO: 8) on AEC2 cell viability, surgical biopsies were obtained for the preparation of non-specific interstitial pneumonia precision cut lung slices (PCLS). One individual with non-specific interstitial pneumonia (NSIP) and another with end-stage IPF were processed. Lysotracker staining, which stains acidic compartments in live cells and selectively accumulates in the lamellar bodies of lung AEC2 cells (Van der Velden et al., 2013), was performed. Cav-1 peptide was suspended in DMEM/5% FBS, and PCLS slices (n=5 replicates/treatment group) were treated with 10, 100, or 500 μM LTI-03 or APi2355 (Var 55). Lysotracker staining (Green DND-26, Promega) was performed on NSIP PCLS 48 h after a single treatment. […] In addition, lysotracker staining (Red DND-99, Promega) was performed on end-stage IPF on days 1, 2, 3, 5, and 7 following daily treatment with LTI-03 or APi2355.

[4] = tested on: AEC2 cells of non-specific interstitial pneumonia (NSIP) precision cut lung slices; test: Lysotracker staining of AEC2 cells in NSIP precision cut lung slices; type: cell-based; conditions: NSIP PCLS, 48 h after a single treatment with 10, 100, or 500 μM
Text: as §1

[5] = TBS pH 7.51, compared to other tested peptides

With `CC(C)[C@H](NC(=O)[C@@H](NC(=O)[C@H](Cc1ccccc1)NC(=O)[C@@H](NC(=O)[C@@H](NC(=O)[C@H](Cc1ccccc1)NC(=O)[C@H](CO)NC(=O)[C@H](C)NC(=O)[C@@H](N)CCCN)[C@@H](C)O)[C@@H](C)O)[C@@H](C)O)C(=O)N[C@H](C(=O)N[C@@H](CCCCN)C(N)=O)[C@@H](C)O` [APi2348, OASFTTFTVTK-NH2] (H-[Orn]ASFTTFTVTK-NH2) the “UV (Abs) at dissolution” value [1] was 0.846.

In the case of `CC(C)[C@H](NC(=O)[C@@H](NC(=O)[C@H](Cc1ccccc1)NC(=O)[C@@H](NC(=O)[C@@H](NC(=O)[C@H](Cc1ccccc1)NC(=O)[C@H](CO)NC(=O)[C@H](C)NC(=O)[C@H](CCCCN)NC(=O)CNC(=O)[C@H](CCC(=O)O)NC(=O)[C@@H](C)NC(=O)[C@@H](C)N)[C@@H](C)O)[C@@H](C)O)[C@@H](C)O)C(=O)N[C@H](C(=O)N[C@@H](CCCCN)C(=O)NCC(=O)N[C@@H](CO)C(=O)N[C@H](C)C(=O)N[C@H](C)C(N)=O)[C@@H](C)O` [APi2354, aaEGKASFTTFTVTKGSaa-NH2] (H-[dA][dA]EGKASFTTFTVTKGS[dA][dA]-NH2), the “expression of SMA relative to tubulin” value [2] is reported as “increased the expression of SMA relative to tubulin”, the “solubility at pH 7.51 (in words)” value [1, 5] is reported as “increased solubility” and the “UV (Abs) after rest” value [1] is reported as 0.007. The “UV (Abs) at dissolution” value [1] was 0.008.

For `CC(=O)N[C@H](C)C(=O)N[C@H](C)C(=O)N[C@@H](CCC(=O)O)C(=O)NCC(=O)N[C@@H](CCCCN)C(=O)N[C@@H](C)C(=O)N[C@@H](CO)C(=O)N[C@@H](Cc1ccccc1)C(=O)N[C@H](C(=O)N[C@H](C(=O)N[C@@H](Cc1ccccc1)C(=O)N[C@H](C(=O)N[C@H](C(=O)N[C@H](C(=O)N[C@@H](CCCCN)C(=O)NCC(=O)N[C@@H](CO)C(=O)N[C@H](C)C(=O)N[C@H](C)C(N)=O)[C@@H](C)O)C(C)C)[C@@H](C)O)[C@@H](C)O)[C@@H](C)O` [APi2355, Ac-aaEGKASFTTFTVTKGSaa-NH2] (Ac-[dA][dA]EGKASFTTFTVTKGS[dA][dA]-NH2), the “AEC2 cell viability (lysotracker staining)” value [3] was “observed out to day 3”, the “expression of SMA relative to tubulin” value [2] was “increased the expression of SMA relative to tubulin” and the “AEC2 cell viability (lysotracker staining)” value [4] was “strong dose-dependent increase”. For the same compound, the “solubility at pH 7.51 (in words)” value [1, 5] was “increased solubility”, the “UV (Abs) after rest” value [1] was 0.000 and the “UV (Abs) at dissolution” value [1] was 0.000.

With “Ac-DSGKASFTTFTVTK-NH2 [APi2353, Ac-DSGKASFTTFTVTK-NH2]” the “UV (Abs) after rest” value [1] was 3.000 and the “UV (Abs) at dissolution” value [1] was 3.000.

For “Ac-KASFTTFTVTK-NH2 [APi2347, Ac-KASFTTFTVTK-NH2]”, the “UV (Abs) after rest” value [1] was 2.284 and the “UV (Abs) at dissolution” value [1] was 2.347.

In the case of “Ac-KASFTTFTVTKGS-NH2 [APi2351, Ac-KASFTTFTVTKGS-NH2]”, the “UV (Abs) after rest” value [1] is reported as 2.377 and the “UV (Abs) at dissolution” value [1] is reported as 2.523.

For Ac-OASFTTFTVTK-NH2 [APi2349], the “UV (Abs) after rest” value [1] was 1.827 and the “UV (Abs) at dissolution” value [1] was 1.870.

In the case of Ac-OASFTTFTVTOS-NH2 [APi2357], the “UV (Abs) at dissolution” value [1] is reported as 2.293.

With “H-DSGKASFTTFTVTK-NH2 [APi2352, DSGKASFTTFTVTK-NH2]” the “UV (Abs) after rest” value [1] was 2.398 and the “UV (Abs) at dissolution” value [1] was 2.468.

With H-FTTFTVT-NH2 [APi2344, FTTFTVT-NH2] the “UV (Abs) after rest” value [1] was 1.437 and the “UV (Abs) at dissolution” value [1] was 2.409.

In the case of H-FTTFTVTK-NH2 [APi2345, FTTFTVTK-NH2], the “solubility at pH 7.51 (in words)” value [1, 5] is reported as “dissolution was incomplete” and the “UV (Abs) after rest” value [1] is reported as 1.058.

For “H-KASFTTFTVTK-NH2 [APi2346, KASFTTFTVTK-NH2]”, the “UV (Abs) after rest” value [1] was 1.622 and the “UV (Abs) at dissolution” value [1] was 1.648.

In the case of KASFTTFTVTKGS-NH2 [APi2350], the “expression of SMA relative to tubulin” value [2] is reported as “increased the expression of SMA relative to tubulin” and the “solubility at pH 7.51 (in words)” value ([1]; pH 7.51) is reported as “increased solubility”.

For “OASFTTFTVTOS-NH2 ([Orn]ASFTTFTVT[Orn]S-NH2; N-terminus assumed; SMILES CC(C)[C@H](NC(=O)[C@@H](NC(=O)[C@H](Cc1ccccc1)NC(=O)[C@@H](NC(=O)[C@@H](NC(=O)[C@H](Cc1ccccc1)NC(=O)[C@H](CO)NC(=O)[C@H](C)NC(=O)[C@@H](N)CCCN)[C@@H](C)O)[C@@H](C)O)[C@@H](C)O)C(=O)N[C@H](C(=O)N[C@@H](CCCN)C(=O)N[C@@H](CO)C(N)=O)[C@@H](C)O) [APi2356, O = Ornithine]”, the “expression of SMA relative to tubulin” value [2] was “increased the expression of SMA relative to tubulin”, the “UV (Abs) at dissolution” value [1] was 0.001 and the “solubility at pH 7.51 (in words)” value ([1]; pH 7.51) was “increased solubility”.
